# From patent US20070110693A1, “COMPOSITIONS CONTAINING PEPTIDE COPPER COMPLEXES AND SOFT TISSUE FILLERS, AND METHODS RELATED THERETO” (PROCYTE CORPORATION, priority 2002, published 2007)
# Experiments:
# collagen synthesis = test: Subcutaneous stainless steel chamber implant model: collagen content measured as hydroxyproline (HYP); assay type: in vivo, rat
# From the text: (§1) The subcutaneous implantation of stainless steel chambers in rats provides a model for studying the synthesis of extracellular matrix components (collagen and glycosaminoglycan) by providing a recoverable site of new matrix synthesis. The assay involves implanting in each rat, two cylindrical stainless steel chambers (1 cm in diameter×2.5 cm long, 312 SS, 20 mesh, with Teflon end caps), one on each side of the rats' dorsal midline. After allowing for encapsulation of the chambers, both chambers on each rat were injected with 0.2 ml of a solution containing the representative soft tissue filler or saline on day 4 after implantation, and the test peptide copper compound (or saline alone as a control) on days 6, 8, 11, 13, 15, 16, and 18. Chambers were removed from the animals on day 30 after implantation for biochemical analysis.
# The chambers were lyophylized and the interior contents removed for biochemical analysis. The biochemical parameters examined include collagen content, the latter being measured as a hydroxyproline (“HYP”) content. The latter, an amino acid specific for collagen, was measured after acid hydrolysis and using a colormetric assay for HYP (see e.g., Bergman, I and Loxley, R., “The Determination of Hydroxyproline in Urine Hydrolysates,” Clin. Chim. Acta. 27: 347-349, 1970). Collagen content was expressed as μg of HYP per chamber or per milligram of protein.
# (§2) In this example, hydroxypropyl methyl cellulose was used as the soft tissue filler. A dose of 6 milligrams of the hydroxypropyl methyl cellulose, as a gel, was injected into each of the chambers. Injections of saline served as controls.
# (§3) Glycyl-L-histidyl-L-lysine:copper(II) (“GHK-Cu”), was used as the peptide copper complex used. The GHK-Cu was prepared at a molar ratio of 2 moles of peptide to one mole of copper(II), and dissolved in a saline solution at a concentration of 10 milligrams/milliliter. A dose of […] of GHK-Cu was injected for each day of treatment.
# (§4) The stimulation of collagen and GAG synthesis by injection of various peptide copper complexes has been determined by methods described in Example 1. The peptide copper complexes used were L-alanyl-L-histidyl-L-lysine:copper(II) (“AHK-Cu”), prepared at a molar ratio of 1 mole of peptide to one mole of copper(II), and glycyl-L-histidyl-L-lysyl-L-valyl-L-phenylalanyl-L-valine:copper(II) (“GHKVFV-Cu”), prepared at a molar ratio of 2 moles of peptide to one mole of copper(II). The peptide copper complexes were dissolved in a saline solution at a concentration of 10 milligrams/milliliter. A dose of 2.4 micromoles of peptide copper complex was injected on each treatment day.
# The stimulation of collagen synthesis by injection of various peptide copper complexes has been determined by methods described in Examples 1 and 2. […]
# [1] = tested on: glycosaminoglycan (GAG) synthesis; test: Subcutaneous stainless steel chamber implant model: glycosaminoglycan (GAG) content measured as uronic acid (UA); assay type: in vivo, rat
# From the text: as §1
# The chambers were also analyzed for glycosaminoglycan content, another component of the extracellular matrix or skin. Glycosaminoglycan (“GAG”) content was determined by quantifying the amount of uronic acid (“UA”), a carbohydrate component specific for GAGs. UA was determined by a colorimetric assay, as described using 2-hydroxydiphenyl as a reagent (see, e.g., Vilim, V., “Colorimetric Estimation of Uronic Acids using 2-hydroxydiphenyl as a Reagent,” Biomed. Biochim. Acta. 44 11/12 s: 1717-1720, 1985). GAG content was expressed as μg of UA per chamber.
# as §2, §3, §4
# [2] = Example 2, 2.4 micromoles of peptide copper complex per treatment day, saline control 60 ± 5
# [3] = Example 3, 0.6 mg of peptide copper complex per treatment day, saline control 1838 ± 636
Substance,"μg Uronic Acid/Chamber Mean ± SEM [1, 2]",μg HYP/Chamber Mean ± SEM (collagen synthesis; [3]),further results
Glycyl-L-histidyl-L-lysine:copper(II) [GHK-Cu],–,–,"μg HYP/Chamber Mean ± SEM (collagen synthesis; Example 1, GHK-Cu 0.2 mg per treatment day in combination with soft tissue filler HPMC 6 mg on day 4, chambers removed day 30, saline control 1222 ± 111): 3423 ± 341 μg HYP/Chamber; μg HYP/Chamber Mean ± SEM (collagen synthesis; Example 1, agent alone (GHK-Cu 0.2 mg per treatment day on days 6-18, or HPMC gel 6 mg on day 4), chambers removed day 30, saline control 1222 ± 111): 4226 ± 265 μg HYP/Chamber; μg Uronic Acid/Chamber Mean ± SEM ([1]; Example 1, GHK-Cu 0.2 mg per treatment day in combination with soft tissue filler HPMC 6 mg on day 4, chambers removed day 30, saline control 46.3 ± 5.8): 88.1 ± 5.6 μg Uronic Acid/Chamber; μg Uronic Acid/Chamber Mean ± SEM ([1]; Example 1, agent alone (GHK-Cu 0.2 mg per treatment day on days 6-18, or HPMC gel 6 mg on day 4), chambers removed day 30, saline control 46.3 ± 5.8): 117.3 ± 12.9 μg Uronic Acid/Chamber"
L-alanyl-L-histidyl-L-lysine:copper(II) [AHK-Cu],105 ± 21 μg Uronic Acid/Chamber,–,–
glycyl-L-histidyl-L-leucine methyl ester:copper(II) [GHL-Me-Cu],–,3357 ± 863 μg HYP/Chamber,–
glycyl-L-histidyl-L-leucine:copper(II) [GHL-Cu],–,3619 ± 754 μg HYP/Chamber,–
glycyl-L-histidyl-L-lysyl-L-valyl-L-phenylalanyl-L-valine:copper(II) [GHKVFV-Cu],79 ± 9 μg Uronic Acid/Chamber,–,–
